Some results are limits rather than exact numbers.

Regarding `CSc1cc([N+](=O)[O-])ccc1C(N)=O`, the melting point (in general, the temperature, or range, at which the solid turns liquid) was in the range of 202 to 204 °C.
`OC(c1nccn1CCc1ccccc1)C1CCNCC1` (stereo unspecified) registered a melting point of 145 °C.
For `CC(CCNC(=O)C(C#N)=Cc1ccc(O)c(O)c1)NC(=O)C(C#N)=Cc1ccc(O)c(O)c1` (stereo unspecified), the melting point came to 281 °C.
In the case of `COC(=O)c1cccc2c(C#N)c(OC)ccc12`, the melting point lay in the range of 210 to 211 °C.
In the case of `N#Cc1cc(F)c(F)cc1N`, the melting point was found to be 114 °C.
In the case of `COc1ccc(C(=O)c2c(O)c3ccccc3[nH]c2=O)cc1OC` it was 235 to 236 °C; in that of `C[C@H](N)C(=O)N(CC(=O)O)C1Cc2ccccc2C1`, 180 to 182 °C.
The result for `O=C(OC1c2ccccc2C(=O)N1c1ccc2ccc(Cl)nc2n1)N1CCN(C(=O)C(F)(F)F)CC1` (stereo unspecified) reads 218 °C; that for `CCCC1(C2=CCN(C)CC2)c2ccccc2CCc2ccccc21`, 122 to 124 °C; that for `Cc1nc(-c2ccc(C#N)cc2)sc1C(=O)N[C@H](C)[C@](O)(Cn1cncn1)c1ccc(C(F)(F)F)cc1` (relative stereo), 105 to 111 °C.
In the case of `COc1ccc(C(=O)Nc2cc(NC(=O)c3ccc(N(C)CCCN(C)C)cc3)ccc2C)cc1OC` it was 164 to 165 °C; in that of `CCc1cn2ccccc2c1S(=O)(=O)c1ccc(OS(=O)(=O)c2ccc(C)cc2)c(C)c1`, 164 °C.
Regarding `Cc1nc2c(N)nc3cccnc3c2n1CC1(O)CCN(C(=O)OC(C)(C)C)CC1`, the melting point was 233 to 235 °C.
On to `COC(=O)c1ccc(OCCNC(=O)C2Cc3ccccc3N2S(=O)(=O)c2ccc(-c3ccc(F)cc3C)cc2)cc1F` (stereo unspecified), for which the melting point lay in the range of 66 to 75 °C.
In turn, `C=CC(=O)Oc1ccc(N2C(=O)C(=C(C)C)/C(=C(/C)c3cc(C)oc3C)C2=O)cc1` registered a melting point of 157 to 158 °C.
`Nc1ncc(-c2cc(Cl)c([N+](=O)[O-])c(Cl)c2Cl)c(N)n1` came in with a melting point of 293 to 295 °C.
Molecule `Nc1ccc2oc(-c3ccccc3)c(O)c(=O)c2c1` gave a melting point of 211 to 212 °C.
Molecule `Cn1cnc2c(N)cc(Br)cc21` displayed a melting point of 170 °C.
As for `CC(CSC(=O)C(C)(C)C)C(=O)N1C(C(=O)O)CC2CCCCC21` (stereo unspecified), the melting point is 134 to 136 °C.
`O=c1cc(NCCCN2CCN(c3cccc4c3OCCO4)CC2)cn[nH]1`: the melting point was 158 to 160 °C.
For `Cc1cnccc1N1CCN(CC(=O)c2ccc(NS(C)(=O)=O)cc2)CC1`, the melting point was 201 to 205 °C.
In the case of `Nc1ccc2nc3c(nc2c1)CCCC3` it was 150 to 152 °C.
For the molecule `C=CCc1ccc(-c2nc3c(N[C@H]4[C@@H](C(N)=O)[C@@H]5C=C[C@H]4C5)c(Cl)cnc3[nH]2)c(OC)c1`, the melting point fell in the range of 123 to 126 °C.
Take `COc1cc2[nH]c(=O)n(-c3ccccc3C)c(=O)c2cc1OC`: the melting point was in the range of 282 to 284 °C.
Molecule `CCC[C@H](N[C@@H](C)C(=O)O)C(=O)OCC` had a melting point of 153 to 154 °C.
In turn, `CC(=O)N1CC(=O)N/C(=C\c2ncoc2C(C)(C)C)C1=O` displayed a melting point of 145 to 147 °C.
On to `Nc1cccc2c1=NC(=O)C=2c1ccccc1`, for which the melting point lay in the range of 226 to 230 °C.
In the case of `N#Cc1cc(-c2ccccc2)[nH]c1Sc1ccc2ccccc2c1` it was 93 to 94.4 °C; in that of `O=C1CS(=O)(=O)c2ccccc21`, 133 to 134 °C; in that of `Cc1cc(C)cc(-c2nc3ncccc3o2)c1`, 148 to 152 °C.
The result for `O=C(O)c1cc2c3ccccc3[nH]c(=S)n2n1` reads 272 to 273 °C.
Turning to `CN(CCNCc1ccccc1)Cc1ccccc1`, the melting point was in the range of 83 to 84 °C.
Turning to `CC(C)c1nc2c(N)nc3ccccc3c2n1CCOc1ccccc1`, the melting point was in the range of 229 to 231 °C.
The molecule `CN(C)CCOc1ccc2c(c1)OCC21C(=O)Nc2ccccc21` (stereo unspecified) registered a melting point of 95 to 97 °C.
`c1ccc2c(c1)CCC1C2=NNC1c1ccncc1` (stereo unspecified) returned a melting point of 169 to 173 °C.
As for `O=c1cc(-c2ccc(OCCOCCOc3ccc(-c4cc(=O)c5c(O)cc(O)cc5o4)cc3)cc2)oc2cc(O)cc(O)c12`, the melting point was 268 to 270 °C.
In the case of `COc1ccc(C2Cc3ccccc3N=C(C)N2C)cc1` (stereo unspecified) it was 130 to 132 °C.
For `O=C(O)CCCCC(=O)Nc1ccc(C(=O)NN=C2C(=O)Nc3ccc(I)cc32)cc1`, the melting point came out at 286 °C.
In the case of `N#Cc1cc(Cn2cncn2)cc(-c2ccc(F)cc2)c1`, the melting point fell in the range of 134 to 135 °C.
`COc1nc2cc(C)c(C)c(NS(C)(=O)=O)c2nc1OC` had a melting point of 219 °C.
The result for `CN(C)c1ccc(C(=O)Nc2ccccc2CCC2CCCCN2C)cc1` (stereo unspecified) reads 115 to 116 °C.
For the molecule `COc1ccc2c(c1Br)C(=O)C(=O)N2`, the melting point fell in the range of 250 to 251 °C.
The result for `COC(=O)C(Cl)Cc1cc(F)c(-n2c(=O)cc(C(F)(F)F)n(C)c2=O)cc1[N+](=O)[O-]` (stereo unspecified) reads 60 to 65 °C; that for `COc1ccc(CNc2nc(N3CCC(C(=O)O)CC3)nc3sc(C(F)(F)F)cc23)cc1OC`, 203 °C.
Consider `O=C1N(Cc2ccc3c(c2)OCCO3)c2ccccc2C12COc1cc3c(cc12)OCCO3` (stereo unspecified), for which the melting point was in the range of 120 to 123 °C.
For `COc1cc2ncnc(N3CCN(C(=O)NCc4ccc(Br)cc4)CC3)c2cc1OC`, the melting point was in the range of 211 to 212 °C.
In the case of `FC(F)(F)COc1ccc(OCc2ccccc2)cc1` it was 72 to 74 °C; in that of `CCc1c(-c2ccc(OC)cc2)c2c(C(=O)N(C)CCN(C)C)c(C(=O)O)c3cc(OC)cc1n32`, 221 to 223 °C; in that of `COc1cccc(S(=O)(=O)Nc2ccc(Cl)nc2I)c1`, 154 °C.
In turn, `CCOC(=O)c1cc(S(=O)(=O)c2ccccc2)c2ccccn2c1=O` registered a melting point of 182 °C.
In the case of `Cc1c(Sc2ccc(Cl)cc2)nn(-c2cccc(Cl)c2)c(=O)c1C#N` it was 150 to 151 °C; in that of `CCC(OC(C)=O)C(C)[N+](=O)[O-]` (stereo unspecified), 73 to 75 °C; in that of `Cc1ccc2c(c1)CC(=S)N2`, 120 to 122 °C.
In the case of `Cc1nnc(C(C)C)n1C1CC2CCC(C1)N2CCC(NC(=O)C1CCC(F)(F)CC1)c1ccc(N)cc1` (stereo unspecified) it was 103 to 105 °C; in that of `Cc1c(Cc2cccnc2)c2ccccc2n1CCc1nnn[nH]1`, 173 °C; in that of `CCOC(=O)c1snc(-c2ccccc2)c1C(=O)OCC`, 70 to 71.5 °C.
For `CC(C)Oc1cccc2c1C1=NCCN1c1c(-c3noc(C4CC4)n3)ncn1-2`, the melting point lay within 211 to 214 °C.
Take `CC(C(=O)N(C)CCO)c1cc(C(C)(C)C)c(O)c(C(C)(C)C)c1` (stereo unspecified): the melting point was 66 °C.
In turn, `COc1cccc(C=C2C(=O)c3ccccc3N2C(C)=O)c1[N+](=O)[O-]` returned a melting point of 161 to 162 °C.
Molecule `O=C(Nc1ccc(C(=O)N2Cc3ccccc3Cc3ccccc32)cc1)C1CC=CCC1` (stereo unspecified) yielded a melting point of 234 to 236 °C.
Turning to `CC1(C)CC([N+]([O-])=Cc2ccccc2)CC(C)(C)N1`, the melting point is 113 °C.
In the case of `CCOC(=O)c1ncn2c1[C@@H]1CCCN1C(=O)c1ccccc1-2` it was 196 to 197 °C; in that of `CCCCC(C(=O)OCC)S(=O)(=O)c1ccc(OC)cc1` (stereo unspecified), 62 °C.
The result for `OCC(CO)c1ccccc1` reads 52 to 54 °C; that for `CNC(=O)c1ccccc1Nc1nc(Nc2ccc3c(c2)CCN(S(C)(=O)=O)CC3)ncc1Cl`, 251 to 256 °C; that for `CC(C)CNC(=O)N(CCCl)N=O`, 51 °C.
In turn, `CCOC(=O)c1cnn2c1N(C(=O)CCl)CC=C2c1cccc(C(F)(F)F)c1` displayed a melting point of 141 to 142 °C.
The molecule `OCCc1nccn1CCCCc1ccc(O)cc1` gave a melting point of 75 to 77 °C.
`CC(C)(C)c1ccc(C(=O)Nc2cn3c4c(ccc3n2)OCC4)cn1` registered a melting point of 246 to 248 °C.
Molecule `CNC(=NC#N)Nc1cccc(C(=O)NCCSCc2ccc(CN(C)C)o2)c1` showed a melting point of 140 to 142 °C.
Molecule `CN(C)CCc1c[nH]c2ccc(Br)cc12` yielded a melting point of 82 to 85 °C.
In the case of `O=S(Cc1ccccc1NC1CCCC1)c1nc2ncccc2[nH]1` (stereo unspecified), the melting point amounted to 134 °C.
Molecule `CN1CCN(c2cccc(N)c2)C(=O)C1` showed a melting point of 139 to 140 °C.
`CC(C)c1cccc(-c2nscc2C(=O)O)c1` gave a melting point of 143 to 157 °C.
`CCN(c1c(-c2ccccc2)[nH]c(C)c1C(=O)c1ccccc1)S(=O)(=O)c1ccc(C)cc1` displayed a melting point of 224 to 225 °C.
For the molecule `CC(C)c1c(Sc2ccccc2)n(CC2CC=CC2)c(=O)[nH]c1=O`, the melting point is 131 to 134 °C.
Consider `CNC(=O)Nc1snc(S(C)=O)c1C#N` (stereo unspecified), for which the melting point stood at 241 °C.
The result for `N#CCN(CC#N)CCN(CC#N)CC#N` reads 131 to 132 °C.
`O=C(c1cc(=O)c2cc(O)ccc2[nH]1)N1CCC(Cc2ccc(F)cc2)CC1`: the melting point came out at 190 °C.
The molecule `Cc1ccc(C(NC(=O)[C@H](CCC(=O)O)NC(=O)c2cc3ccccc3[nH]2)c2ccc(C)cc2)cc1` registered a melting point greater than 260 °C.
The result for `O=C(NC1C(=O)N(CCCO)c2ccccc2N(c2ccccc2)C1=O)Oc1ccccc1` (stereo unspecified) reads 203 to 204 °C.
In the case of `O=C(O)C1(c2ccc(Nc3nc(N4CCOCC4)nc4c3CCC4)cc2)CCC1`, the melting point fell in the range of 279 to 281 °C.
With `Cc1cc(Nc2ccc(C#N)cc2)c([N+](=O)[O-])c(C)n1`, the melting point was 171 to 172 °C.
In the case of `Cc1cc(-c2ccc(C(F)(F)F)cc2)cnc1N` it was 74 °C; in that of `CCCCNC(=O)C=C(C)C=CC=C(C)C=Cc1c(C)cc(OC)c(C)c1C`, 178 °C.
`CCOC(=O)c1cc2cc(C)cc(C)c2[nH]1` had a melting point of 141 to 143 °C.
As for `O=C(O)c1ccc(-c2nc(-c3ccc(C(F)(F)F)cc3)no2)cc1`, the melting point was in the range of 293 to 294 °C.
Turning to `CCOC(=O)C(CC(=O)c1cccc(Cl)c1)(NC(C)=O)C(=O)OCC`, the melting point fell in the range of 84 to 86 °C.
Turning to `CCCc1c(SCCCSc2ccc(-c3nnn[nH]3)cc2)ccc(C(C)=O)c1O`, the melting point lay within 160 to 162 °C.
In turn, `OCc1ncccc1OCc1ccccc1` registered a melting point of 78.7 to 79.2 °C.
Molecule `Cc1ccc(O)cc1C=O` showed a melting point of 116 to 118 °C.

The values are drawn from a melting point compilation (Tetko et al.; mined from patent text by program, amines drawn as free bases though some values may be those of a salt).
